According to patent publication US9297798B2, “Therapeutic approach for polyglutamine degeneration” (The Chinese University of Hong Kong, priority 2013, dated 2016):

Tests used:
[1] = test system: pre-45s rRNA transcription in MJDCAG78-expressing HEK293 cells; assay: Real-time PCR of pre-45s rRNA in MJDCAG78-expressing HEK293 cells; format: cell-based; details: MJDCAG78-expressing HEK293 cells (FIG. 5D)
Text: (§1) FIG. 5. Depicts the distinct stress responses induced by toxic expanded CAG-RNA and polyQ protein which can be differentiated by pre-rRNA and GRP78/BiP gene expression respectively in transgenic Drosophila and mammalian cell models. […] “dpe” denotes days post eclosion. The CAG repeat sequence of the DsRedCAG constructs is located in the 3′ UTR, thus expanded CAG RNA is produced but not expanded polyglutamine protein. Only RNA toxicity is observed in the DsRedCAG model. […] The MJDCAG constructs express both expanded CAG RNA and polyglutamine protein. […] The MJDCAA/G construct only generates polyQ protein toxicity because the continuity of the expanded CAG sequence is disrupted which disrupts RNA toxicity. (D) Real-time PCR analysis of the effects of RNA and protein toxicity peptidylic inhibitors on pre-45s rRNA and GRP78/BiP expression in an MJD disease cell model. HEK293 cells expressing a polynucleotide encoding MJDCAG78 reduced pre-45s rRNA transcription and induced GRP78/BiP expression. […] Cells expressing a polynucleotide encoding MJDCAG27 served as a control. “SCR” and “P3MT5” represent scrambled QBP1 and mutant P3 peptides respectively.

DsRedCAG100 RNA toxicity = assay: Pseudopupil assay in DsRedCAG100 Drosophila fed with peptide; format: in vivo; details: larvae fed with synthetic peptide at 100 μM until adulthood
Procedure: FIG. 3. Illustrates an in vivo reduction in expanded CAG-RNA toxicity by feeding Drosophila fly lines that overexpress DsRedCAG100 RNA with synthetic Nucleolin P3 peptide. DsRedCAG0 (A-C) and DsRedCAG100 (D-F) F1 larvae were fed with 100 μM of NCL P3 peptide until adulthood. Representative images of rhabdomeres (light-sensing organelles in eyes) taken from 1 day-old adult flies are shown. The average number of rhabdomeres per ommatidium (single eye unit of the adult flies) is shown at the bottom left hand corner of each image, and “+/−” represents s.e.m. from 3 independent sets of experiments. “NCL P3WT” represents wildtype NCL P3 peptide while “NCL P3MTc” represents mutant c NCL P3 peptide.
DsRedCAG RNA was expressed in Drosophila fly eyes. DsRedCAG0 (FIGS. 3A-C) and DsRedCAG100 (FIGS. 3D-F) using a pseudopupil assay (Chan W M, et al. 2011). F1 larvae were fed with 100 μM of NCL P3 peptides until adulthood. The overexpression caused the integrity of the internal eye structure to deteriorate, as indicated by the reduced number of rhabdomeres which are subcellular organelles responsible for phototransduction (FIG. 3D). DsRedCAG100 larvae were fed with synthetic P3MTc (FIG. 3E) or P3 (FIG. 3F) peptide at 100 μM.

[2] = test system: GRP78/BiP expression in MJDCAG78-expressing HEK293 cells; assay: Real-time PCR of GRP78/BiP in MJDCAG78-expressing HEK293 cells; format: cell-based; details: MJDCAG78-expressing HEK293 cells (FIG. 5D)
Text: as §1

[3] = test system: interaction between purified NCL and expanded CAG RNA (NCL: CAG78 RNA complex); assay: Competition assay: GST-NCL / CAG78 RNA pull-down on glutathione beads, bound RNA by RT-PCR; format: binding
Text: Purified GST-nucleolin (GST-NCL) protein was purchased from Abnova (H00004691-P01), and the control GST protein was expressed and purified as previously described (Tsoi H, et al. 2011). The CAG78 (SEQ ID NO:18) and CUG78 (SEQ ID NOP:19) RNAs were synthesized from a pcDNA3.1-MJDCAG78 PCR product, using the MEGAscript kit (Ambion) with the following primer pairs: T7CAGF, 5′-TAA AC GACTCACTATAGGGAGAAGAAGCCTACTTTGAAAAA-3′ (SEQ ID NO:20) and CAGR, 5′-CTG TCC TGA TAG GTC CCG-3′ (SEQ ID NO:21) for CAG78 (SEQ ID NO:18); and T7CUGF, 5′-TAATACGACTCACTATAGGGAGAAGACACGACTATCCAGGGC-3′ (SEQ ID NO:22) and CUGR, 5′-CTT CGG ATG AAA CTT TTT-3′ (SEQ ID NO:23) for CUG78 (SEQ ID NO:19). To perform in vitro protein-RNA interaction, 50 ng of GST protein was first captured by glutathione Sepharose beads (GE Healthcare). The purified in vitro transcribed RNA (10 pmol) was allowed to bind with GST-coated glutathione Sepharose beads and the mixture was incubated at 4° C. overnight in a 500-μL reaction volume. Before elution, the protein-RNA mixture was washed three times with 1 mL of binding buffer [20 mM Hepes, pH 7.4, 150 mM NaCl, 5 mM MgCl2, 0.5% Nonidet P-40, 40 units RNAsin (Promega), and 1 mg/mL yeast tRNA (Sigma)]. Bound RNA was then extracted for RT-PCR as described in Tsoi H, et al. 2011.
These peptides were then tested for the ability to interact with expanded CAG RNA. […]

polyQ protein toxicity = details: reported in literature, in vitro and in vivo; cited from earlier work
[4] = test system: Drosophila polyQ disease model; assay: Pseudopupil assay in transgenic Drosophila polyQ model (RNA and protein toxicities); format: in vivo; details: third instar larvae incubated with peptides (100 μM each); pseudopupil assay on 0-3 day-old adult flies
Procedure: FIG. 7. (A) A co-treatment approach to target RNA and protein toxicities of polyQ diseases. (B) The combined effect of P3 and QBP1 peptides on suppressing neurodegeneration in a transgenic Drosophila polyQ model. Third instar larvae were incubated with corresponding peptides (100 μM each). Pseudopupil assay was performed on 0-3 day-old adult flies. The average number of rhabdomeres per ommatidium (single eye unit of the adult flies) is shown at the bottom left hand corner of each image. (C) Statistical analysis of (B). “WT” and “MT5” represent wildtype and mutant P3 peptides respectively. “SCR” denotes a scrambled sequence of QBP1. * represents P<0.05; ** represents P<0.01. Error bars represent standard deviation. Because both expanded CAG RNA and polyQ protein contribute to neurotoxicity, a therapeutic strategy that simultaneously targets these toxic species would be ideal for treatment. A similar combined therapeutic approach was recently reported in cancer treatment (Suzuki, et al., 2013), indicating its therapeutic potential of this strategy. We have performed a pilot study to simultaneously target both the RNA and protein toxicities using a well-studied protein toxicity peptide QBP1 (Nagai, et al., 2000) and P3, and has obtained satisfactory suppression (FIG. 7A).

Substance | pre-45s rRNA transcription [1] | suppression of DsRedCAG100 RNA toxicity (pseudopupil assay score) (DsRedCAG100 RNA toxicity) | GRP78/BiP induction [2] | disruption of the interaction between purified NCL and expanded CAG RNA, dose dependence ([3]; P3 at 10, 50, 100, 250, and 750 μM with NCL and CAG78 RNA (FIG. 1D)) | interference with the interaction between purified NCL and expanded CAG RNA ([3]; Ten μM of each peptide with purified GST-NCL and CAG78 RNA (FIG. 1C)) | suppression of polyQ protein toxicity (polyQ protein toxicity) | suppression of neurodegeneration in Drosophila polyQ disease model [4]
DGKSKGIAAIEAK (synthetic nucleolin RNA recognition motif (RRM), RRM domain of nucleolin, RRM-related sequence core amino acid sequence P3MT5/MTc) [Peptide P3MT5] | did not demonstrate such suppressive effects | did not exert any rescuing effect | did not demonstrate such suppressive effects | – | – | – | –
VPQNQNGKSKGYAF (synthetic nucleolin RNA recognition motif (RRM), RRM domain of nucleolin, RRM-related sequence core amino acid sequence P5) [Peptide P5] | – | – | – | able to interfere with the interaction between purified NCL and expanded CAG RNA | able to interfere with the interaction between purified NCL and expanded CAG RNA | – | –
S N W K W W P G I F D (SNWKWWPGIFD; synthetic polyQ-mediated toxicity inhibitor peptide QBP1) [reference compound] | restored pre-45s rRNA transcription | – | suppressed GRP78/BiP induction | – | – | capable of suppressing polyQ protein toxicity both in vitro and in vivo | substantial suppression
